In patent US20230085307A1, “PYRIDAZINONE COMPOUND AND HERBICIDE” (NISSAN CHEMICAL CORPORATION, priority 2019, published 2023):

Key:
redroot pigweed = test: Test Example 5: herbicidal effect by foliage application, plastic box (Table 20, symbol N); format: in vivo, redroot pigweed (Amaranthus retroflexus)
Procedure, shortened: (§1)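 Foliar spray test: emulsion formulation diluted in water to a set application rate, sprayed onto 14-day-old plants raised in diluvial soil at 25° C to 30° C under glass. Both herbicidal effect and crop effect rated visually three weeks later.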

blackgrass = test: Test Example 5: herbicidal effect by foliage application, plastic box (Table 20, symbol J); format: in vivo, blackgrass (Alopecurus myosuroides)
Procedure, shortened: as §1

lambsquarters = test: Test Example 5: herbicidal effect by foliage application, plastic box (Table 20, symbol O); format: in vivo, lambsquarters (Chenopodium album)
Procedure, shortened: as §1

persian speedwell = test: Test Example 5: herbicidal effect by foliage application, plastic box (Table 20, symbol R); format: in vivo, Persian speedwell (Veronica persica); conditions: foliage application
Procedure, shortened: as §1

velvetleaf = test: Test Example 5: herbicidal effect by foliage application, plastic box (Table 20, symbol M); format: in vivo, velvetleaf (Abutilon theophrasti)
Procedure, shortened: as §1

southern crabgrass = test: Test Example 5: herbicidal effect by foliage application, plastic box (Table 20, symbol F); format: in vivo, southern crabgrass (Digitaria ciliaris)
Procedure, shortened: as §1

green foxtail = test: Test Example 5: herbicidal effect by foliage application, plastic box (Table 20, symbol G); format: in vivo, green foxtail (Setaria viridis)
Procedure, shortened: as §1

barnyard grass [1] = test: Test Example 5: herbicidal effect by foliage application, plastic box (Table 20, symbol H); format: in vivo, barnyard grass (Echinochloa crus-galli)
Procedure, shortened: as §1

Italian ryegrass = test: Test Example 5: herbicidal effect by foliage application, plastic box (Table 20, symbol K); format: in vivo, Italian ryegrass (Lolium multiflorum)
Procedure, shortened: as §1

windgrass = test: Test Example 5: herbicidal effect by foliage application, plastic box (Table 20, symbol L); format: in vivo, windgrass (Apera spica-venti)
Procedure, shortened: as §1

chickweed = test: Test Example 5: herbicidal effect by foliage application, plastic box (Table 20, symbol P); format: in vivo, common chickweed (Stellaria media)
Source text: [Test Example 5] Herbicidal Effect Test by Foliage Application
Sterilized diluvial soil was placed in a plastic box having a length of 21 cm, a width of 13 cm, and a depth of 7 cm. The seeds of each of southern crabgrass, green foxtail, barnyard grass, wild oat, blackgrass, Italian ryegrass, windgrass, velvetleaf, redroot pigweed, lambsquarters, chickweed, false cleavers, persian speedwell, corn, soybean, rice, wheat, beet, and rapeseed were sowed in a spot-like manner and covered with the soil having a thickness of about 1.5 cm. Thereafter, the plants were grown in a greenhouse at 25° C. to 30° C. After 14-day growth of the plants, the emulsion agent of the compound of the present invention prepared according to Formulation Example 2 was diluted with water so as to achieve a predetermined herbicide amount, and the diluted emulsion agent was uniformly applied to a foliage part with a small-sized spray. Three weeks after the herbicide application, the effect of the herbicide on each plant was evaluated according to the criteria of Test Example 1.

wild oat = test: Test Example 5: herbicidal effect by foliage application, plastic box (Table 20, symbol I); format: in vivo, wild oat (Avena fatua)
Procedure, shortened: as §1

rice flat sedge = test: Test Example 3: herbicidal effect by foliage application, Wagner pot (Table 18, symbol E); format: in vivo, rice flat sedge (Cyperus iria)
Procedure, shortened: (§2)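 Plants were sown in alluvial soil held under 0.1–0.5 cm standing water and grown 14 days in a greenhouse at 25–30 °C. An emulsifiable formulation, water-diluted to the set dose, was then sprayed onto the foliage, and effects were scored three weeks later using previously defined criteria.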

Chinese sprangletop = test: Test Example 3: herbicidal effect by foliage application, Wagner pot (Table 18, symbol D); format: in vivo, chinese sprangletop (Leptochloa chinensis)
Procedure, shortened: as §2

barnyard grass [2] = test: Test Example 3: herbicidal effect by foliage application, Wagner pot (Table 18, symbol H); format: in vivo, barnyard grass (Echinochloa crus-galli)
Procedure, shortened: as §2

[3] = foliage application, AAH 80 g/ha, three weeks after application
[4] = foliage application, 99 g/ha, three weeks after application
[5] = amount of applied herbicide 320 g/ha, foliage application after 14-day growth, evaluated three weeks after application
[6] = foliage application, 320 g/ha, evaluated three weeks after application
[7] = amount of applied herbicide 320 g/ha
[8] = foliage application, AAH 320 g/ha, evaluated three weeks after application

Compound: COc1cc(OC)cc(-c2sc3ccccc3c2-c2c(O)c(OC)nn(C)c2=O)c1 [1-184]
- N: redroot pigweed, herbicidal effect (redroot pigweed; [3]): 0 (Herbicidal rate of 5% or less (almost no effect))
- J: blackgrass, herbicidal effect (blackgrass; [3]): 0 (Herbicidal rate of 5% or less (almost no effect))
- O: lambsquarters, herbicidal effect (lambsquarters; [3]): 0 (Herbicidal rate of 5% or less (almost no effect))
- R: persian speedwell, herbicidal effect (persian speedwell; AAH 80 g/ha, three weeks after application): 0 (Herbicidal rate of 5% or less (almost no effect))
- M: velvetleaf, herbicidal effect (velvetleaf; [3]): 0 (Herbicidal rate of 5% or less (almost no effect))
- F: southern crabgrass, herbicidal effect (southern crabgrass; [3]): 0 (Herbicidal rate of 5% or less (almost no effect))
- G: green foxtail, herbicidal effect (green foxtail; [3]): 0 (Herbicidal rate of 5% or less (almost no effect))
- H: barnyard grass, herbicidal effect (barnyard grass [1]; [3]): 0 (Herbicidal rate of 5% or less (almost no effect))
- K: Italian ryegrass, herbicidal effect (Italian ryegrass; [3]): 0 (Herbicidal rate of 5% or less (almost no effect))
- L: windgrass, herbicidal effect (windgrass; [3]): 0 (Herbicidal rate of 5% or less (almost no effect))
- P: chickweed, herbicidal effect (chickweed; [3]): 4 (Herbicidal rate of 70% or more and less than 90%)
- I: wild oat, herbicidal effect (wild oat; [3]): 0 (Herbicidal rate of 5% or less (almost no effect))

Compound: COc1c(C)cccc1-c1sc2ccccc2c1-c1c(O)c(C)nn(C)c1=O [1-067]
- herbicidal effect on E (rice flat sedge), rating 0-5 (rice flat sedge; 99 g/ha): 0 (Herbicidal rate of 5% or less (almost no effect))
- herbicidal effect grade, N: redroot pigweed (redroot pigweed; [4]): 1 (Herbicidal rate of 5% or more and less than 20%)
- herbicidal effect on D (Chinese sprangletop), rating 0-5 (Chinese sprangletop; 99 g/ha): 0 (Herbicidal rate of 5% or less (almost no effect))
- herbicidal effect grade, J: blackgrass (blackgrass; [4]): 0 (Herbicidal rate of 5% or less (almost no effect))
- herbicidal effect grade, O: lambsquarters (lambsquarters; [4]): 0 (Herbicidal rate of 5% or less (almost no effect))
- herbicidal effect grade, R: persian speedwell (persian speedwell; 99 g/ha, three weeks after application): 0 (Herbicidal rate of 5% or less (almost no effect))
- herbicidal effect grade, M: velvetleaf (velvetleaf; [4]): 2 (Herbicidal rate of 20% or more and less than 40%)
- herbicidal effect grade, F: southern crabgrass (southern crabgrass; [4]): 0 (Herbicidal rate of 5% or less (almost no effect))
- herbicidal effect grade, G: green foxtail (green foxtail; [4]): 0 (Herbicidal rate of 5% or less (almost no effect))
- herbicidal effect grade, H: barnyard grass (barnyard grass [1]; [4]): 0 (Herbicidal rate of 5% or less (almost no effect))
- herbicidal effect grade, K: Italian ryegrass (Italian ryegrass; [4]): 0 (Herbicidal rate of 5% or less (almost no effect))
- herbicidal effect grade, P: chickweed (chickweed; [4]): 2 (Herbicidal rate of 20% or more and less than 40%)
- herbicidal effect on H (barnyard grass), rating 0-5 (barnyard grass [2]; 99 g/ha): 3 (Herbicidal rate of 40% or more and less than 70%)
- herbicidal effect grade, I: wild oat (wild oat; [4]): 0 (Herbicidal rate of 5% or less (almost no effect))

Compound: CCCC(=O)Oc1c(C)nn(C)c(=O)c1-c1c(-c2ccccc2OCOC)sc2c(Cl)cccc12 [4-084]
- herbicidal effect on rice flat sedge (E) (rice flat sedge; 320 g/ha): 4 (Herbicidal rate of 70% or more and less than 90%)
- Herbicidal effect by foliage application, N: redroot pigweed (redroot pigweed; [5]): 5 (Herbicidal rate of 90% or more (almost completely withered))
- herbicidal effect on Chinese sprangletop (D) (Chinese sprangletop; 320 g/ha): 4 (Herbicidal rate of 70% or more and less than 90%)
- Herbicidal effect by foliage application, J: blackgrass (blackgrass; [5]): 0 (Herbicidal rate of 5% or less (almost no effect))
- Herbicidal effect by foliage application, O: lambsquarters (lambsquarters; [5]): 0 (Herbicidal rate of 5% or less (almost no effect))
- Herbicidal effect by foliage application, M: velvetleaf (velvetleaf; [5]): 4 (Herbicidal rate of 70% or more and less than 90%)
- Herbicidal effect by foliage application, F: southern crabgrass (southern crabgrass; [5]): 3 (Herbicidal rate of 40% or more and less than 70%)
- Herbicidal effect by foliage application, G: green foxtail (green foxtail; [5]): 2 (Herbicidal rate of 20% or more and less than 40%)
- Herbicidal effect by foliage application, H: barnyard grass (barnyard grass [1]; [5]): 3 (Herbicidal rate of 40% or more and less than 70%)
- Herbicidal effect by foliage application, K: Italian ryegrass (Italian ryegrass; [5]): 0 (Herbicidal rate of 5% or less (almost no effect))
- Herbicidal effect by foliage application, L: windgrass (windgrass; [5]): 0 (Herbicidal rate of 5% or less (almost no effect))
- Herbicidal effect by foliage application, P: chickweed (chickweed; [5]): 4 (Herbicidal rate of 70% or more and less than 90%)
- herbicidal effect on barnyard grass (H) (barnyard grass [2]; 320 g/ha): 5 (Herbicidal rate of 90% or more (almost completely withered))
- Herbicidal effect by foliage application, I: wild oat (wild oat; [5]): 0 (Herbicidal rate of 5% or less (almost no effect))

Compound: CCCC(=O)Oc1c(C)nn(C)c(=O)c1-c1c(-c2ccc(F)cc2OC)sc2ccc(-c3ccc(OC(C)C)cc3)cc12 [2-169]
- herbicidal effect on N: redroot pigweed (criteria 0-5) (redroot pigweed; [6]): 2 (Herbicidal rate of 20% or more and less than 40%)
- herbicidal effect on J: blackgrass (criteria 0-5) (blackgrass; [6]): 0 (Herbicidal rate of 5% or less (almost no effect))
- herbicidal effect on O: lambsquarters (criteria 0-5) (lambsquarters; [6]): 3 (Herbicidal rate of 40% or more and less than 70%)
- herbicidal effect on R: persian speedwell (criteria 0-5) (persian speedwell; 320 g/ha, evaluated three weeks after application): 0 (Herbicidal rate of 5% or less (almost no effect))
- herbicidal effect on M: velvetleaf (criteria 0-5) (velvetleaf; [6]): 0 (Herbicidal rate of 5% or less (almost no effect))
- herbicidal effect on F: southern crabgrass (criteria 0-5) (southern crabgrass; [6]): 0 (Herbicidal rate of 5% or less (almost no effect))
- herbicidal effect on G: green foxtail (criteria 0-5) (green foxtail; [6]): 0 (Herbicidal rate of 5% or less (almost no effect))
- herbicidal effect on H: barnyard grass (criteria 0-5) (barnyard grass [1]; [6]): 0 (Herbicidal rate of 5% or less (almost no effect))
- herbicidal effect on K: Italian ryegrass (criteria 0-5) (Italian ryegrass; [6]): 0 (Herbicidal rate of 5% or less (almost no effect))
- herbicidal effect on L: windgrass (criteria 0-5) (windgrass; [6]): 0 (Herbicidal rate of 5% or less (almost no effect))
- herbicidal effect on P: chickweed (criteria 0-5) (chickweed; [6]): 0 (Herbicidal rate of 5% or less (almost no effect))
- herbicidal effect on I: wild oat (criteria 0-5) (wild oat; [6]): 0 (Herbicidal rate of 5% or less (almost no effect))

Compound: C=CCOc1c(C)nn(C)c(=O)c1-c1c(-c2ccc(OC(F)F)cc2)sc2ccc(F)cc12 [2-300]
- herbicidal effect on E: rice flat sedge (rice flat sedge; [7]): 3 (Herbicidal rate of 40% or more and less than 70%)
- N: redroot pigweed, herbicidal effect (criteria 0-5) (redroot pigweed; [8]): 3 (Herbicidal rate of 40% or more and less than 70%)
- J: blackgrass, herbicidal effect (criteria 0-5) (blackgrass; [8]): 0 (Herbicidal rate of 5% or less (almost no effect))
- O: lambsquarters, herbicidal effect (criteria 0-5) (lambsquarters; [8]): 5 (Herbicidal rate of 90% or more (almost completely withered))
- R: persian speedwell, herbicidal effect (criteria 0-5) (persian speedwell; AAH 320 g/ha, evaluated three weeks after application): 5 (Herbicidal rate of 90% or more (almost completely withered))
- M: velvetleaf, herbicidal effect (criteria 0-5) (velvetleaf; [8]): 1 (Herbicidal rate of 5% or more and less than 20%)
- F: southern crabgrass, herbicidal effect (criteria 0-5) (southern crabgrass; [8]): 0 (Herbicidal rate of 5% or less (almost no effect))
- G: green foxtail, herbicidal effect (criteria 0-5) (green foxtail; [8]): 0 (Herbicidal rate of 5% or less (almost no effect))
- H: barnyard grass, herbicidal effect (criteria 0-5) (barnyard grass [1]; [8]): 0 (Herbicidal rate of 5% or less (almost no effect))
- K: Italian ryegrass, herbicidal effect (criteria 0-5) (Italian ryegrass; [8]): 0 (Herbicidal rate of 5% or less (almost no effect))
- P: chickweed, herbicidal effect (criteria 0-5) (chickweed; [8]): 5 (Herbicidal rate of 90% or more (almost completely withered))
- herbicidal effect on H: barnyard grass (barnyard grass [2]; [7]): 3 (Herbicidal rate of 40% or more and less than 70%)
- I: wild oat, herbicidal effect (criteria 0-5) (wild oat; [8]): 0 (Herbicidal rate of 5% or less (almost no effect))
